Patent US20080004325A1, “PTP1B inhibitors” (Wyeth, priority 2006, published 2008)

Target: T1, catalytic domain of human PTP1b (residues 1-299) (Homo sapiens, UniProt P18031)
T1 construct: catalytic domain of human PTP1b (residues 1-299); made in house; host or cells: E. coli
T1 sequence (P18031 1-299): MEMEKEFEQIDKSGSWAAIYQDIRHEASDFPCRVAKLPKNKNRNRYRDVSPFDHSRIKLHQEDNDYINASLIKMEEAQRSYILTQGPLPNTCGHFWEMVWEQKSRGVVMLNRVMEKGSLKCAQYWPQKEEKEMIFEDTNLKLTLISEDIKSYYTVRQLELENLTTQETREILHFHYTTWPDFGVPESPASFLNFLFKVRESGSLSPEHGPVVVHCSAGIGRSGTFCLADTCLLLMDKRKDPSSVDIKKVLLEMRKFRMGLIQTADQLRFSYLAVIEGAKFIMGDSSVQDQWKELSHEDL
Experiment: PTP1b pNPP hydrolysis inhibition assay
Assay type: biochemical
Settings: pNPP substrate, 25° C., pH 7.0, three fixed inhibitor concentrations; read-out: Ki Micromolar
Method: The p-nitrophenyl phosphate (pNPP) substrate was purchased from Sigma. PTPase activity was measured at room temperature (25° C.) in a 200 ul reaction mixture with various concentrations of substrate. Reactions began with enzyme addition and were quenched after 2-3 minutes with 1N NaOH. Background hydrolysis of pNPP was measured without addition of enzyme. […] All experiments were performed in 50 mM 3,3-dimethylglutarate buffer (pH 7.0), with 10 mM DTT, 1 mM EDTA, and with the ionic strength adjusted to 0.15 M with NaCl. All solutions were prepared in distilled, deionized water. For initial evaluation of each compound, percent inhibition was determined for two concentrations of compound (for example at 200 uM and 20 uM) at a fixed pNPP concentration.
Percent inhibition was determined following background subtraction of the non-enzymatic hydrolysis rate compared to no inhibitor (DMSO only) controls. Inhibition constants and inhibition patterns were evaluated using the direct curve-fitting program GraFit (Erithacus Software Limited).

Row | SMILES | Ki
1 | Cc1c(N2CC(=O)NS2(=O)=O)csc1-c1cccc(NC2CC(C)(C)CC(C)(C)C2)c1 | 15 µM
2 | CC1C(=O)NS(=O)(=O)N1c1csc(-c2ccccc2)c1 (stereo not shown) [4-methyl-5-(5-phenyl-3-thienyl)-1,2,5-thiadiazolidin-3-one 1,1-dioxide] | > 1000 µM
3 | O=C1CN(c2csc(-c3cccc(NC4CCCCC4)c3)c2)S(=O)(=O)N1 [5-5-[3-(cyclohexylamino)phenyl]-3-thienyl}-1,2,5-thiadiazolidin-3-one 1,1-dioxide] | 12 µM
4 | O=C1CN(c2csc(-c3ccccc3)c2Br)S(=O)(=O)N1 [5-(4-bromo-5-phenyl-3-thienyl)-1,2,5-thiadiazolidin-3-one 1,1-dioxide] | 18 µM
5 | Cc1c(N2CC(=O)NS2(=O)=O)csc1-c1ccccc1 [5-(4-methyl-5-phenyl-3-thienyl)-1,2,5-thiadiazolidin-3-one 1,1-dioxide] | 41 µM
6 | NS(=O)(=O)N(c1cccc(-c2scc(N3CC(=O)NS3(=O)=O)c2Cl)c1)C1CCCCC1 [N-{3-[3-chloro-4-(1,1-dioxido-4-oxo-1,2,5-thiadiazolidin-2-yl)-2-thienyl]phenyl}-N-cyclohexylsulfamide] | 1.7 µM

Further compounds by falling Ki, results first:

Row | Ki | SMILES
7 | 150 µM | O=C1CN(c2csc(-c3ccccc3)c2)S(=O)(=O)N1 [5-(5-phenyl-3-thienyl)-1,2,5-thiadiazolidin-3-one 1,1-dioxide]
8 | 34 µM | Cc1c(N2CC(=O)NS2(=O)=O)csc1-c1cccc([N+](=O)[O-])c1 [5-[4-methyl-5-(3-nitrophenyl)-3-thienyll-1,2,5-thiadiazolidin-3-one 1,1-dioxide]
9 | 14 µM | O=C1CN(c2csc(-c3cccc(NC4CCCCC4)c3)c2Cl)S(=O)(=O)N1 [5-{4-chloro-5-[3-(cyclohexylamino)phenyl]-3-thienyl}-1,2,5-thiadiazolidin-3-one 1,1-dioxide]
10 | 4 µM | Cc1c(N2CC(=O)NS2(=O)=O)csc1-c1cccc(NC2CCN(S(=O)(=O)Cc3ccccc3)CC2)c1 [5-[5-(3-{[1-(benzylsulfonyl)piperidine-4-yl]amino}phenyl)-4-methyl-3-thienyl]-1,2,5-thiadiazolidin-3-one 1,1-dioxide]
